From US11873405B2, “High oleic oil compositions and uses thereof” (priority 2021, dated 2024)

What was measured:
[1] = tested on: E06 mutant (Strain K) microalgae cells; test: Selection for tolerance to triparanol: growth in 3-day lipid production culture, 96-deep well block; type: cell-based, Prototheca wickerhamii; settings: cells exposed to increasing amounts of triparanol, FIG. 7
Experimental: The cryo-vials were thawed and used to initiate a 10 mL pre-seed culture in bioreactor tube, which was incubated for 72 h at 28° C./200 rpm. Two rounds of selection and enrichment with increasing amounts of triparanol were conducted following the strategy outlined in FIG. 3. […] This population was collected on sterile filters, diluted, and spread on solid media. The resulting clonal isolates were screened in our automated 96-well block-based lipid production and glucose consumption assay. A number of strains with increased oleate levels were identified among the mutant clones (TABLE 5). Strains validated in repeat assays were then assessed for phenotypic stability. Stable strains were cryo-preserved.
Cells were exposed to increasing amounts of triparanol during a 3-day lipid production culture in a 96-deep well block. Significant inhibition of growth occurred at […] concentrations >2 μM. Rare surviving cells presumed to be in wells where 50% inhibition was observed were recovered by sterile filtration, washed with and collected from the filter in M20+glucose pre-seed media. The cultures were then used to initiate another round of selection. By the third round of selection (right panels), a subtle difference in the growth of the mutant population compared to the mock-mutagenized controls was observed. […]

[2] = tested on: E06 mutant (Strain K) microalgae cells; test: Selection for tolerance to membrane stress: growth (OD750) in 3-day lipid production culture, 96-deep well block; type: cell-based, Prototheca wickerhamii; settings: fixed 1.6 μM triparanol plus increasing phenethyl alcohol, FIG. 6
Experimental: The mutant strain, Strain 0_E06 (Strain E06), while not phenotypically stable, consistently achieved higher oleate levels than the mutant lineage that gave rise to Strain 1 (TABLE 3). As such, this mutant lineage was selected for further rounds of classical strain improvement, and designated as “Strain K”. Following overnight growth in M21+40 g/L glucose seed media to mid-log phase, the E06 mutant was exposed to 270 mM ethyl methanesulfonate (EMS) in 0.1 M potassium phosphate buffer (pH 7.0) for 45 min at room temperature in dark and with periodic gentle agitation. Mutagenesis was terminated with the addition of a sodium thiosulfate solution to final concentration of 3% (w/v). In parallel, a mock-mutagenized control cell population was taken through all the same manipulations, except for exposure to EMS. Cells were collected using 0.2-micron filter sterilization units, washed extensively with water, and then washed with and into 5 mL M20+5 g/L glucose pre-seed media. Pre-seed cultures were incubated at 28° C./900 rpm/80% humidity for 72 h. An 8% (v/v) inoculum from each culture was then used to initiate a seed culture in 10 mL of standard M21+5 g/L glucose seed media in 50-mL bioreactor tubes. […] Growth was then assessed by measuring optical density at 750 nm wavelength (OD750) in a Molecular Devices Spectramax M5 plate reader. […]

SMILES: OCCc1ccccc1 [phenethyl alcohol]
- concentrations at which significant inhibition of growth occurred [1]: > 2 µM
- concentrations at which significant inhibition of growth occurred [2]: > 3.6 mM
